The values that follow come from paper PMC6828666, “Discovery of holoenzyme-disrupting chemicals as substrate-selective CK2 inhibitors” (Scientific Reports, 2019).

In one assay the target is CK2α/CK2β interaction (Homo sapiens, UniProt P68400). As to the kind of experiment: SPR competition study of MBP-CK2β binding to GST-CK2α. The following applies: 70 μM. The method, then: SPR competition studies (Fig. 2i) were performed using a BIAcore 3000 instrument (BIAcore AB) equipped with a CM5 sensor chip (BIAcore AB). After activation with a solution of N-hydroxysuccinimide and N-ethyl-N-(dimethylaminopropyl)carbodiimide hydrochloride (coupling solution BIAcore AB), the anti-GST antibody diluted at 30 μg/ml in 10 mM acetate buffer pH 5.0 was injected at a flow rate of 5 μL/min for 7 min. All the surfaces were blocked with a 3 min injection at 10 μL/min of 1 M ethanolamine, pH 8.0. GST-CK2α (50 μg/ml) was immobilized on the surface at a flow rate of 5 μL/min in HBS (10 mM Hepes pH 7.3, 0.15 M NaCl, 3 mM EDTA, 0.005% polysorbate 20). MBP-CK2β diluted at 50 μg/ml in HBS buffer was injected over the surface at a flow rate of 5 μL/min in presence of various compound 1 concentration. Regeneration of the surfaces was achieved by injection of 10 mM glycine-HCl pH 2.2. SPR binding studies (Supplementary Fig. S7) were performed using a Reichert SR7000DC instrument optical biosensor (Reichert Technologies) equipped with a CMD500m sensor chip obtained from XanTec Bioanalytics. CK2α was immobilized by a capturing approach using a monoclonal anti-GST antibody (27 kDa, Clone GST-R 6G9 produced in rat, SAB4200055 Sigma Aldrich). […]

The test system of assay [1] is CK2β-depleted MCF10A cells (ΔCK2β). Put plainly: Cell growth inhibition in CK2β-depleted cells (IncuCyte). The format is cell-based, human. The note with it: 50 μM; ΔCK2β vs WT MCF10A. On the procedure: Cells grown on 96-well flat-bottomed plates (Corning Falcon) were tracked using an Essen IncuCyte Zoom live-cell microscopy instrument, an automated live cell imager with high-throughput capabilities and built-in data analysis. Experiments were conducted at 37 °C and 5% CO2. The software incorporated into the IncuCyte Zoom was used to analyze the images.
MCF10A and MDA-MB231 cells were seeded into 96-well plates at a density (1 × 10^4 and 2 × 10^4 cells/well, respectively) and allowed to attach overnight. Bright field images were captured every 3 h for the duration of the experiment. The detection software was calibrated specifically for MCF10A and MDA-MB231 to ensure accurate distinction of cells from empty space. Cell proliferation data were obtained by the cell confluence increment in each of the treatments and expressed as percentage relative to that of control cells.
Fig. S9. […] (a) MCF10A cells were incubated with increasing concentrations of 6 for 24 h. (b) Inset: western blot analysis of CK2 subunits in parental MCF10A cells (WT) or CK2β knockdown MCF10A cells (∆CK2β). Uncropped blots are shown in Supplementary Fig. S16. MCF10A WT (r,p) or MCF10A ∆CK2β (○,●) were incubated with DMSO (r,○) or 50 μM 6 (p,●) for the indicated time. Cell growth was monitored using an Essen IncuCyte Zoom live-cell microscopy incubator. Images were captured every 15 min for the duration of the experiment. […]

Sequence of CK2α/CK2β interaction (P68400 whole entry): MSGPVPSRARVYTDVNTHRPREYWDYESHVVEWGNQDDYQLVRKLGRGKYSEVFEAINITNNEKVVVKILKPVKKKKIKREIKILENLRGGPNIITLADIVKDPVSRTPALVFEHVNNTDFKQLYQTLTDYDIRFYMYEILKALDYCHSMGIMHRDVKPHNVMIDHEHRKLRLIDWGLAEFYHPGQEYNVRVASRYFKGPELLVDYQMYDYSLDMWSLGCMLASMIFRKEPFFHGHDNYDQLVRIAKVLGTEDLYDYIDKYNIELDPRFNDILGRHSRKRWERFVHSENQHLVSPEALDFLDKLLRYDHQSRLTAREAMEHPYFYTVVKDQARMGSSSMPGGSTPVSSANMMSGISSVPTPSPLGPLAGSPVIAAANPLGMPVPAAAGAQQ

With `COc1[nH]c2ccc(F)cc2c1C(=O)OCC1CCN(CCNS(C)(=O)=O)CC1` [Compound 1], on CK2α/CK2β interaction, the “reduction of SPR signal (MBP-CK2β binding to GST-CK2α)” value is on record as “about 60%”.

For `COc1[nH]c2ccc(F)cc2c1C(=O)OCC1CCN(CCNS(=O)(=O)c2ccccc2)CC1.Cl` [Compound 6], the “growth inhibition in CK2β-depleted cells compared with WT cells” value in assay [1] was “twice more pronounced”.
